Data published in US11306096B2, “4,6 dihydropyrrolo [3,4-C] pyrazole-5 (1H)-carbonitrile derivates for treating cancer” (MISSION THERAPEUTICS LIMITED, priority 2016, dated 2022).

These compounds were tested against USP7 (Homo sapiens (Human), UniProt Q93009) (assay: USP7 Biochemical IC50 Assay). Details: FLAG-USP7; enzyme and compound incubated 30 min at room temp; TAMRA labelled peptide-ubiquitin fluorescence polarisation substrate; read after 2 hr; read-out: IC50 range.
Description: The USP7 construct was PCR amplified and cloned into a pFLAG-CMV-6a vector (Sigma-Aldrich) with an N-terminal FLAG tag. HEK293T cells were transfected with FLAG-USP7 using TransIT-LT1 transfection reagent (Mirus) according to the manufacturer's instructions. Cells were harvested 40 hours after transfection. […] The resin was washed two times with low salt buffer plus protease inhibitors (complete mini, Roche) and phosphatase inhibitors (PhosSTOP mini, Roche) and one time with high salt buffer (20 mM Tris, pH 7.5, 500 mM NaCl, 0.5 mM EDTA, 5 mM beta-mercaptoethanol, protease inhibitors (complete mini, Roche) and phosphatase inhibitors (PhosSTOP mini, Roche). To elute the bound USP7, elution buffer (10 mM Tris, pH 7.5, 150 mM NaCl, 0.5 mM EDTA, 10% glycerol, 0.5% NP40, 5 mM beta-mercaptoethanol, 0.15 mg/ml 3×FLAG peptide (Sigma-Aldrich)) was added to the resin and incubated at 4° C. for 2.5 hours rotating. The resin was centrifuged at 4000 rpm for 30 seconds, and the supernatant containing purified FLAG-USP7 was removed and stored at −80° C.
USP7 Biochemical IC50 Assay
A typical 8-point dilution series would be 100, 30, 10, 3, 1, 0.3, 0.1, 0.03 μM final. […] Either 1 μl of 50% DMSO or diluted compound was added to the plate. USP7 was diluted in reaction buffer (20 mM Tris, pH 7.5, 100 mM NaCl, 0.05% Tween 20, 0.5 mg/ml BSA, 5 mM—beta mercaptoethanol) to the equivalent of 0.0025 μl/well and 10 μl of diluted USP7 was added to the compound. Enzyme and compound were incubated for 30 min at room temp. Reactions were initiated by the addition of 50 nM of TAMRA labelled peptide linked to ubiquitin via an iso-peptide bond as fluorescence polarisation substrate. Reactions were read immediately after addition of substrate and following a 2 hr incubation at room temperature. Readings were performed on a Pherastar Plus (BMG Labtech). λ Excitation 540 nm; λ Emission 590 nm.

Sequence of USP7 (Q93009 whole entry): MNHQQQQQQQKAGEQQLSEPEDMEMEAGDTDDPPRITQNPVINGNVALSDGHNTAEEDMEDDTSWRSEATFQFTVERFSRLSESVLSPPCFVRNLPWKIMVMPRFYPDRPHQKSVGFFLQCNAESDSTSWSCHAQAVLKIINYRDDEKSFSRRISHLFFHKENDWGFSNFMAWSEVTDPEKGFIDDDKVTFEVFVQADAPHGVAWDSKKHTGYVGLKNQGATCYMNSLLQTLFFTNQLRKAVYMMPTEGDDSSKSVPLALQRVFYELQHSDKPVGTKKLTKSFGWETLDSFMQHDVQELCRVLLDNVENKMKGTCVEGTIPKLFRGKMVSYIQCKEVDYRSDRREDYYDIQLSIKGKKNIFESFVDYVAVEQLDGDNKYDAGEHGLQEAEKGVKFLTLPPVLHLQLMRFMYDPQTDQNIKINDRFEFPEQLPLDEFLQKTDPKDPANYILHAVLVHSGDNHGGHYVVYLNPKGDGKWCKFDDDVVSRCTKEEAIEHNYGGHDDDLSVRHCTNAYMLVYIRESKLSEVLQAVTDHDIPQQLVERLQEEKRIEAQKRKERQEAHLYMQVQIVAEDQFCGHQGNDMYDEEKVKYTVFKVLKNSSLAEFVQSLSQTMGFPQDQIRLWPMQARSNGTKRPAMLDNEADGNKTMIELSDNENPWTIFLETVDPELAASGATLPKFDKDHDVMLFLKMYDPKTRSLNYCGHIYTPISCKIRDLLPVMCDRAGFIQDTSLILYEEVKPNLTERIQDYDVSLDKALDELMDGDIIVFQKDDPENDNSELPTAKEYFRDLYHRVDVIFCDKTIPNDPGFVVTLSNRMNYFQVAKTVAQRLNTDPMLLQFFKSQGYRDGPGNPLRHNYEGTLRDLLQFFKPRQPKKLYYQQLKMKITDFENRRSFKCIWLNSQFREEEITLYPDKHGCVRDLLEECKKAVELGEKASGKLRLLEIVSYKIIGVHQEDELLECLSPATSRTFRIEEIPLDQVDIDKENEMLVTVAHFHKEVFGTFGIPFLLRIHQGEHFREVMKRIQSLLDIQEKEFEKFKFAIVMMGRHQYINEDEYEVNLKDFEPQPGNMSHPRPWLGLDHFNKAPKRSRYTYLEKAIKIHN

Row | Structure (SMILES) | IC50 [µM]
1 | CN1CCN(c2ccc(-c3n[nH]c4c3CN(C#N)C4)cn2)CC1 [Example 69, 3-(6-(4-Methylpiperazin-1-yl)pyridin-3-yl)-4,6-dihydropyrrolo[3,4-c]pyrazole-5(1H)-carbonitrile] | < 10
2 | N#CN1Cc2[nH]nc(CNC(=O)c3cc(-c4ccccc4)n[nH]3)c2C1 [Example 34, N-((5-Cyano-1,4,5,6-tetrahydropyrrolo[3,4-c]pyrazol-3-yl)methyl)-3-phenyl-1H-pyrazole-5-carboxamide] | < 10
3 | N#CN1Cc2cnn(-c3cnn(-c4ccccc4)c3)c2C1 [Example 8, 1-(1-Phenyl-1H-pyrazol-4-yl)-4,6-dihydropyrrolo[3,4-c]pyrazole-5(1H)-carbonitrile] | < 10
4 | COc1cc(-n2cccn2)ccc1-c1n[nH]c2c1CN(C#N)C2 [Example 70, 3-(2-Methoxy-4-(1H-pyrazol-1-yl)phenyl)-4,6-dihydropyrrolo[3,4-c]pyrazole-5(4H)-carbonitrile] | < 10
5 | COc1ccc(C(C)C)cc1-c1nn(C)c2c1CN(C#N)C2 [Example 62, 3-(5-Isopropyl-2-methoxyphenyl)-1-methyl-4,6-dihydropyrrolo[3,4-c]pyrazole-5(1H)-carbonitrile] | < 10
6 | COc1ccc(-c2n[nH]c3c2CN(C#N)C3)cn1 [Example 46, 3-(6-Methoxypyridin-3-yl)-4,6-dihydro-pyrrolo[3,4-c]pyrazole-5(1H)-carbonitrile] | < 10
7 | CC(=O)NCc1nn(-c2ccccc2)c2c1CN(C#N)C2 [Example 36, N-((5-Cyano-1-phenyl-1,4,5,6-tetrahydropyrrolo[3,4-c]pyrazol-3-yl)methyl)acetamide] | 10 to 30
8 | N#CN1Cc2[nH]nc(-c3ccc(OCc4ccccc4)cc3)c2C1 [Example 37, 3-(4-(Benzyloxy)phenyl)-4,6-dihydropyrrolo[3,4-c]pyrazole-5(1H)-carbonitrile] | < 10
9 | Cn1ncc2cc(-c3n[nH]c4c3CN(C#N)C4)ccc21 [Example 52, 3-(1-Methyl-1H-indazol-5-yl)-4,6-dihydropyrrolo[3,4-c]pyrazole-5(1H)-carbonitrile] | < 10
10 | N#CN1Cc2[nH]nc(-c3ccc(F)cc3)c2C1 [Example 59, 3-(4-Fluorophenyl)-4,6-dihydropyrrolo[3,4-c]pyrazole-5(1H)-carbonitrile] | < 10
11 | CNC(=O)c1ccc(-c2n[nH]c3c2CN(C#N)C3)cn1 [Example 45, 5-(5-Cyano-1,4,5,6-tetrahydropyrrolo[3,4-c]pyrazol-3-yl)-N-methylpicolinamide] | < 10
12 | N#CN1Cc2cnn(-c3cnc4ccccc4c3)c2C1 [Example 6, 1-(Quinolin-3-yl)-4,6-dihydropyrrolo[3,4-c]pyrazole-5(1H)-carbonitrile] | < 10
13 | N#CN1Cc2cnn(-c3ccccc3)c2C1 [Example 2, 1-Phenyl-4,6-dihydropyrrolo[3,4-c]pyrazole-5(1H)-carbonitrile] | 10 to 30
14 | N#CN1Cc2[nH]nc(-c3cccc(F)c3)c2C1 [Example 57, 3-(3-Fluorophenyl)-4,6-dihydropyrrolo[3,4-c]pyrazole-5(1H)-carbonitrile] | < 10
15 | COc1ccc(C(C)C)cc1-c1n[nH]c2c1CN(C#N)C2 [Example 26, 3-(5-Isopropyl-2-methoxyphenyl)-4,6-dihydropyrrolo[3,4-c]pyrazole-5(1H)-carbonitrile] | < 10
16 | Cn1nc(-c2ccccc2)c2c1CN(C#N)C2 [Example 21, 1-Methyl-3-phenyl-4,6-dihydropyrrolo[3,4-c]pyrazole-5(1H)-carbonitrile] | < 10
17 | Cc1nn(-c2ccccc2)c2c1CN(C#N)C2 [Example 10, 3-Methyl-1-phenyl-4,6-dihydropyrrolo[3,4-c]pyrazole-5(1H)-carbonitrile] | 10 to 30
18 | Cc1ccc(C(=O)NCc2nn(-c3ccccc3)c3c2CN(C#N)C3)cc1 [Example 35, N-((5-Cyano-1-phenyl-1,4,5,6-tetrahydropyrrolo[3,4-c]pyrazol-3-yl)methyl)-4-methylbenzamide] | < 10
19 | N#CN1Cc2[nH]nc(-c3ccccc3)c2C1 [Example 29, 3-Phenyl-4,6-dihydropyrrolo[3,4-c]pyrazole-5(1H)-carbonitrile] | < 10
20 | CN1CCC(n2cc(-c3n[nH]c4c3CN(C#N)C4)cn2)CC1 [Example 68, 3-(1-(1-Methylpiperidin-4-yl)-1H-pyrazol-4-yl)-4,6-dihydropyrrolo[3,4-c]pyrazole-5(1H)-carbonitrile] | < 10

Row | Structure (SMILES) | IC50 [µM]
21 | CC(C)Oc1ccc(-c2n[nH]c3c2CN(C#N)C3)cn1 [Example 50, 3-(6-Isopropoxypyridin-3-yl)-4,6-dihydropyrrolo[3,4-c]pyrazole-5(1H)-carbonitrile] | < 10
22 | N#CN1Cc2[nH]nc(-c3ccc(N4CCOCC4)cc3)c2C1 [Example 72, 3-(4-Morpholinophenyl)-4,6-dihydropyrrolo[3,4-c]pyrazole-5(1H)-carbonitrile] | < 10
23 | N#CN1Cc2[nH]nc(-c3ccc(Oc4ccccc4)cc3)c2C1 [Example 41, 3-(4-Phenoxyphenyl)-4,6-dihydropyrrolo[3,4-c]pyrazole-5(1H)-carbonitrile] | < 10
24 | Cc1ccc(F)c(-c2n[nH]c3c2CN(C#N)C3)c1 [Example 27, 3-(2-Fluoro-5-methylphenyl)-4,6-dihydropyrrolo[3,4-c]pyrazole-5(1H)-carbonitrile] | < 10
25 | CN1CCN(C(=O)c2ccc(-c3n[nH]c4c3CN(C#N)C4)cc2)CC1 [Example 51, 3-(4-(4-Methylpiperazine-1-carbonyl)phenyl)-4,6-dihydropyrrolo[3,4-c]pyrazole-5(1H)-carbonitrile] | < 10
26 | COc1ccc(-n2ncc3c2CN(C#N)C3)cc1 [Example 1, 1-(4-Methoxyphenyl)-4,6-dihydropyrrolo[3,4-c]pyrazole-5(1H)-carbonitrile] | 10 to 30
27 | N#CN1Cc2cnn(-c3cccc(C(=O)NCc4ccccn4)c3)c2C1 [Example 13, 3-(5-Cyano-5,6-dihydropyrrolo[3,4-c]pyrazol-1(4H)-yl)-N-(pyridin-2-ylmethyl)benzamide] | < 10
28 | N#Cc1cccc(-c2n[nH]c3c2CN(C#N)C3)c1 [Example 38, 3-(3-Cyanophenyl)-4,6-dihydropyrrolo[3,4-c]pyrazole-5(1H)-carbonitrile] | < 10
29 | COc1cccc(-n2ncc3c2CN(C#N)C3)c1 [Example 7, 1-(3-Methoxyphenyl)-4,6-dihydropyrrolo[3,4-c]pyrazole-5(1H)-carbonitrile] | 10 to 30
30 | N#CN1Cc2c(-c3ccccc3)nn(Cc3ccccc3)c2C1 [Example 24, 1-Benzyl-3-phenyl-4,6-dihydropyrrolo[3,4-c]pyrazole-5(1H)-carbonitrile] | 10 to 30
31 | N#CN1Cc2[nH]nc(-c3cccc(S(=O)(=O)NC4CC4)c3)c2C1 [Example 55, 3-(5-Cyano-1,4,5,6-tetrahydropyrrolo[3,4-c]pyrazol-3-yl)-N-cyclopropylbenzene-sulfonamide] | < 10
32 | COc1ccc(Cl)cc1-c1n[nH]c2c1CN(C#N)C2 [Example 77, 3-(5-Chloro-2-methoxyphenyl)-4,6-dihydropyrrolo[3,4-c]pyrazole-5(4H)-carbonitrile] | < 10
33 | N#CN1Cc2[nH]nc(Nc3cc4ccccc4cn3)c2C1 [Example 31, 3-(Isoquinolin-3-ylamino)-4,6-dihydropyrrolo[3,4-c]pyrazole-5(1H)-carbonitrile] | < 10
34 | Cc1ccc(F)c(-c2c3c(nn2C)CN(C#N)C3)c1 [Example 61, 3-(2-fluoro-5-methylphenyl)-2-methyl-2,6-dihydropyrrolo[3,4-c]pyrazole-5(4H)-carbonitrile] | 10 to 30
35 | N#CN1Cc2[nH]nc(-c3ccc(C(=O)NCc4ccccc4)cc3F)c2C1 [Example 79, N-Benzyl-4-(5-cyano-1,4,5,6-tetrahydropyrrolo[3,4-c]pyrazol-3-yl)-3-fluorobenzamide] | < 10
36 | COc1ccc(C(C)C)cc1-c1c2c(nn1C)CN(C#N)C2 [Example 63, 3-(5-Isopropyl-2-methoxyphenyl)-2-methyl-2,6-dihydropyrrolo[3,4-c]pyrazole-5(4H)-carbonitrile] | 10 to 30
37 | N#CN1Cc2cnn(-c3ccccc3F)c2C1 [Example 4, 1-(2-Fluorophenyl)-4,6-dihydropyrrolo[3,4-c]pyrazole-5(1H)-carbonitrile] | 10 to 30
38 | N#CN1Cc2[nH]nc(CNC(=O)c3cn4cc(Cl)ccc4n3)c2C1 [Example 65, 6-Chloro-N-((5-cyano-1,4,5,6-tetrahydropyrrolo[3,4-c]pyrazol-3-yl)methyl)-imidazo[1,2-a]pyridine-2-carboxamide] | < 10
39 | N#CN1Cc2c(Nc3cc4ccccc4cn3)nn(Cc3ccccc3)c2C1 [Example 32, 1-Benzyl-3-(isoquinolin-3-ylamino)-4,6-dihydropyrrolo[3,4-c]pyrazole-5(1H)-carbonitrile] | < 10
